From US5464739A, “Composition method for determining the presence of leukocyte cells, esterase or protease in a test sample” (Bayer Corporation, priority 1994, dated 1995)

Assays:
[1] = target: T1, human leukocyte elastase (HLE) (Homo sapiens, UniProt P08246); assay: Dry phase test strip assay of chromogenic substrates for HLE (reflectance at 557 nm, K/S); format: biochemical; conditions: for K/S: response at 120 seconds; for Change in K/S: 120 seconds; for Response to HLE / hydrolysis by HLE, in words: test strip, NDNSA
T1 sequence (P08246 30-247): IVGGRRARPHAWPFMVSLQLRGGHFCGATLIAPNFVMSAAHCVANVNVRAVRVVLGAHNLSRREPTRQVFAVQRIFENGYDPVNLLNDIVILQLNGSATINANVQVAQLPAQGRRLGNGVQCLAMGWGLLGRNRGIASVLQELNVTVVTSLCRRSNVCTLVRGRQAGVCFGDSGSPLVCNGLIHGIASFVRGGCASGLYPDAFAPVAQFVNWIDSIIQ
Protocol: In accordance with the method of the present invention, a test device was prepared which was sensitive to the presence of leukocyte esterase. An aqueous solution including 0.8M borate-sodium hydroxide buffer (pH 8.8) and 1% by weight of polyvinylpyrrolidone (PVP K-60 available from ISP Corp., Wayne, N.J.) first was prepared. A 4 inch wide strip of WHATMAN 3MM filter paper, available commercially from Whatman, Ltd., Maidenhead, Kent, U.K., then was impregnated with the aqueous solution. The impregnated filter paper strip next was dried in an Air Foil paper dryer, available from Thermoelectron, Kaukauna, Wis., at 79° C. to 121° C. for about 5 to 6 minutes.
The dried, impregnated filter paper strip then was impregnated a second time by immersion into an acetone solution containing 1.1 mM of a lactate ester of structural formula […], 0.7 mM 4-diazo-3-hydroxy-7-nitro-1-naphthylsulfonate (i.e., the compound of structural formula (XX), also named 6-nitro-1,2-naphthoquinone diazide), 1.5% (v/v) 1-decanol and 3% (v/v) dimethylsulfoxide. After the second impregnation, the filter paper strip was dried at 60° C. for about 5 to 6 minutes to provide an off-white filter paper strip. The dried, twice-impregnated filter paper pad is secured to an opaque or transparent hydrophobic plastic handle with double-sided adhesive tape. The dried and twice-impregnated filter paper strip was next cut to an appropriate size for a test strip assay, such as a pad having dimensions of about 0.2 in (inch) (0.5 cm) by about 0.2 in (0.5 cm).
Individual test strips each incorporating one chromogenic lactate ester having a structural formula (X) through (XIV) and a diazonium salt coupling agent were quickly immersed into standardized solutions containing 0, 19 or 48 ng/mL HLE, then removed. Approximately two minutes after contacting a standardized HLE solution, the reflectance of the test pad of the test strip was measured at 557 nm (nanometers) on a CLINITEK® 10 clinical reflectance meter, available from Miles, Inc., Elkhart, Ind.
The reflectance, R, as taken from the reflectance scale of zero to one, was incorporated into the Kubelka-Munk function:
wherein K is the absorption coefficient, S is the scattering coefficient and R is reflectance. The reflectance values determined at 557 nm were used to calculate the K/S values. The K/S values are proportional to test strip color, therefore the greater the K/S value, the greater the degree and intensity of the color transition of the test strip and the greater the concentration of HLE in the test strip.
Dry phase test strips incorporating the lactate ester of structural formula (X), and prepared as discussed above, were compared to dry phase test strips incorporating the corresponding alanine derivative (I) for an ability to detect HLE in urine. A comparison also was made between the diazonium salt coupling agents DNSA (XX) and NDNSA (XXI). The test strips were otherwise identical. The results tabulated below were obtained after quickly immersing the individual reagent strips into standardized HLE solutions. Two minutes after immersion, the test strips were examined for a chromogenic response as described above.

[2] = target: T1, human leukocyte elastase (HLE); assay: as above; format: biochemical; conditions: for K/S: response at 120 seconds; for Change in K/S: between 0 and 19 ng/mL HLE; for Change in K/S / Response between 200 and 500 ng/mL HLE, in words: 120 seconds; for ΔK/S (557 mm) at 120 seconds: NDNSA (XXI); for Response between 200 and 500 ng/mL HLE, in words: test strip, NDNSA
[3] = HLE 0 ng/mL, diazonium salt NDNSA, 557 nm
[4] = HLE 19 ng/mL, diazonium salt NDNSA, 557 nm
[5] = HLE 48 ng/mL, diazonium salt NDNSA, 557 nm
[6] = between 0 and 19 ng/mL HLE, diazonium salt NDNSA
[7] = between 0 and 48 ng/mL HLE, diazonium salt NDNSA
[8] = Example 10, HLE 0 ng/mL, diazonium salt not given (as in Example 6)
[9] = Example 10, HLE 19 ng/mL, diazonium salt not given (as in Example 6)
[10] = Example 10, diazonium salt not stated
[11] = change between 0 and 5 ng/mL HLE
[12] = change between 0 and 10 ng/mL HLE
[13] = change between 0 and 20 ng/mL HLE
[14] = change between 0 and 100 ng/mL HLE
[15] = change between 0 and 200 ng/mL HLE
[16] = change between 0 and 500 ng/mL HLE

Structure (SMILES) | K/S [1, 3] | K/S [1, 4] | K/S [1, 5] | Change in K/S [1, 6] | Change in K/S [1, 7] | also measured
COC(=O)CCS(=O)(=O)N[C@@H](C)C(=O)Oc1c[nH]c(-c2ccccc2)c1 | 0.074 | 0.435 | 0.976 | 0.361 | 0.902 | 
C[C@H](NS(=O)(=O)c1cccs1)C(=O)Oc1c[nH]c(-c2ccccc2)c1 [2-Thiophene-SO2 --R--OPP, R = Alanine] |  |  |  |  |  | K/S [1, 8]: 0.050; K/S [2, 9]: 0.224; Change in K/S [2, 10]: 0.174
C[C@H](OS(=O)(=O)c1cccs1)C(=O)Oc1c[nH]c(-c2ccccc2)c1 [2-Thiophene-SO2-(L)-Lac-OPP] |  |  |  |  |  | K/S [1, 8]: 0.03; K/S [2, 9]: 0.385; Change in K/S [2, 10]: 0.332
COC(=O)CCS(=O)(=O)O[C@@H](C)C(=O)Oc1c[nH]c(-c2ccccc2)c1 [MeOSucc--SO2 -(L)-Lac--OPP] | 0.177 | 0.514 | 0.916 | 0.337 | 0.739 | Response to HLE / hydrolysis by HLE, in words [1]: sufficient to assay for HLE
C[C@H](NC(=O)c1ccccc1)C(=O)Oc1c[nH]c(-c2ccccc2)c1 [Ph--CO--R--OPP, R = Alanine] | 0.038 | 0.039 |  | 0.001 |  | 
C[C@H](OC(=O)c1ccccc1)C(=O)Oc1c[nH]c(-c2ccccc2)c1 [Ph--CO--R--OPP, R = Lactate (XI), PhCO-(L)-Lac--OPP] | 0.041 | 0.106 |  | 0.065 |  | 
Cc1ccc(S(=O)(=O)O[C@@H](C)C(=O)Oc2c[nH]c(-c3ccccc3)c2)cc1 [Tosyl-(L)--Lac--OPP, 3-(O-tosyl-(L)-lactoyl)-5-phenylpyrrole] | 0.046 | 0.348 |  | 0.302 |  | Response to HLE / hydrolysis by HLE, in words [1]: readily hydrolyzed by the enzyme HLE
Cc1ccc(S(=O)(=O)N[C@@H](C)C(=O)Oc2c[nH]c(-c3ccccc3)c2)cc1 [Tosyl--Ala--OPP, 3-hydroxy-5-phenyl-pyrrole-N-tosyl-L-alanine ester] | 0.044 | 0.308 |  | 0.264 |  | K/S ([2]; HLE 0 ng/mL, diazonium salt DNSA, 557 nm): 0.021; K/S ([2]; HLE 19 ng/mL, diazonium salt DNSA, 557 nm): 0.146; Change in K/S ([2]; diazonium salt DNSA): 0.125
CCCS(=O)(=O)N[C@@H](C)C(=O)Oc1c[nH]c(-c2ccccc2)c1 [n-Pr--SO2 --Ala--OPP] | 0.050 | 0.363 | 0.881 | 0.313 | 0.831 | ΔK/S (557 mm) at 120 seconds [2, 11]: 0.065; ΔK/S (557 mm) at 120 seconds [2, 12]: 0.165; ΔK/S (557 mm) at 120 seconds [2, 13]: 0.353; ΔK/S (557 mm) at 120 seconds [2, 14]: 1.474; ΔK/S (557 mm) at 120 seconds [2, 15]: 1.797; ΔK/S (557 mm) at 120 seconds [2, 16]: 1.628; Response between 200 and 500 ng/mL HLE, in words [2]: no difference in response
CCCS(=O)(=O)O[C@@H](C)C(=O)Oc1c[nH]c(-c2ccccc2)c1 [n-Pr--SO2 --Lac--OPP, nPr--SO2 -(L)-Lac--OPP] | 0.100 | 0.498 | 1.049 | 0.398 | 0.949 | ΔK/S (557 mm) at 120 seconds [2, 11]: 0.108; ΔK/S (557 mm) at 120 seconds [2, 12]: 0.257; ΔK/S (557 mm) at 120 seconds [2, 13]: 0.533; ΔK/S (557 mm) at 120 seconds [2, 14]: 1.462; ΔK/S (557 mm) at 120 seconds [2, 15]: 1.693; ΔK/S (557 mm) at 120 seconds [2, 16]: 1.915; Response between 200 and 500 ng/mL HLE, in words [2]: continues to increase
